Test results as given in paper PMC5487681, “Identification of Antifungal H^+-ATPase Inhibitors with Effect on Plasma Membrane Potential” (Antimicrobial Agents and Chemotherapy, 2017).
Values after ≈ are worked out from the molar mass of the structure shown. Where two headings read alike, the source gives them in different places.

Key:
Ca^2+-ATPase (SERCA1a) = Ca^2+-ATPase (SERCA1a) (Oryctolagus cuniculus, UniProt P04191); assay: ATP hydrolysis assay, SERCA; assay type: biochemical, rabbit
Procedure: (§1) Rabbit sarcoplasmic reticulum membranes containing sarcoplasmic endoplasmic reticulum Ca^2+-ATPase (SERCA) were kindly provided by Claus E. Olesen and Jesper V. Møller, Aarhus University, and prepared as described in reference. Porcine kidney Na^+,K^+-ATPase was kindly provided by Natalya Fedosova, Aarhus University, and prepared as described in reference.
(§2) The protein activity levels were determined by measuring the amount of free phosphate produced from the ATP hydrolysis reaction. The assay was performed as described in reference. Each well contained ATPase enzyme, 2 μl of inhibitor (usually in the range of 333 to 0.01 μM) dissolved in dimethyl sulfoxide (DMSO) (Duchefa Biochemie, Haarlem, The Netherlands), and an assay buffer dependent on the enzyme for a final volume of 60 μl. Possible compound precipitation in the assay buffer was monitored using a Nephelostar plate reader measuring turbidity, and the information was taken into account in the IC50 determination. Pma1 assay buffer consisted of 20 mM 3-(N-morpholino)propanesulfonic acid (MOPS)–NaOH, pH 6.5 or 7.0, 8 mM MgSO4, 50 mM KNO3 (a vacuolar ATPase inhibitor), 25 mM sodium azide (a mitochondrial ATPase inhibitor), and 250 μM sodium molybdate (an acid phosphatase inhibitor). SERCA buffer consisted of 9 mM MOPS-NaOH, pH 7, 2.7 mM MgCl2, 90 μM CaCl2, and 72 mM KCl. Na^+,K^+-ATPase buffer consisted of 30 mM MOPS-NaOH, pH 7, 40 mM NaCl, 4 mM MgCl2, and 20 mM KCl. The concentration of protein was adjusted to obtain a signal of the optical density at 860 nm (OD860) of between 0.5 and 1.0 in the untreated samples (for all Pma1 batches, ∼1 to 2 μg/well; for SERCA and Na^+,K^+-ATPase, ∼0.1 to 0.2 μg/well).

[1] = tested on: Aspergillus fumigatus ATCC 13073; assay: microbe, parasite or virus in culture; details: Aspergillus fumigatus
Procedure: (§3) The following fungal isolates were used: Saccharomyces cerevisiae ATCC 9763, Candida albicans SC5314, Candida parapsilosis ATCC 22019, Candida tropicalis Ct016, Candida glabrata ATCC 90030, Aspergillus fumigatus ATCC 13073, and Aspergillus flavus ATCC MYA-1005. Frozen stocks of yeast isolates in glycerol (final concentration, 20%) were prepared by growing the cells to log phase in YPD medium at 30°C and 150 rpm. Frozen stocks of mold spores were prepared by harvesting spores from 7-day-old potato glucose agar plates in phosphate-buffered saline, 0.1% Tween 80 and aliquoting these spores in the presence of glycerol (final concentration, 20%). The cells were stored at −80°C. The cells or spores were thawed and diluted to a final concentration of 0.5 × 10^5 to 2.5 × 10^5 CFU/ml in sterile Milli-Q H2O. […] The plate was incubated for 20 to 24 h at 34°C (72 h for molds), and the OD490 was measured on a Victor X5 (PerkinElmer) plate reader. Mold growth assay plates were also visually inspected. The MIC was defined as the lowest concentration inhibiting the visual growth of the microorganism.

Candida tropicalis Ct016 = assay: microbe, parasite or virus in culture; details: Candida tropicalis
Procedure: as §3

[2] = tested on: Candida parapsilosis ATCC 22019; assay: microbe, parasite or virus in culture; details: Lodderomyces parapsilosis
Procedure: as §3

[3] = tested on: Candida glabrata ATCC 90030; assay: microbe, parasite or virus in culture; details: Nakaseomyces glabratus
Procedure: as §3

Candida albicans SC5314 = assay: microbe, parasite or virus in culture; details: Candida albicans
Procedure: as §3

Na^+,K^+-ATPase = biological target: T1, Na^+,K^+-ATPase (Sus scrofa, UniProt P05024); assay: ATP hydrolysis assay, Na+,K+-ATPase; assay type: biochemical, porcine
T1 construct: from tissue; host or cells: porcine kidney (gift of Natalya Fedosova, Aarhus University)
Procedure: as §1, §2

[4] = ATCC13073, 72 h, pH 7, read-out: MIC A. fumigatus
[5] = CT016, pH 7, read-out: MIC C. tropicalis
[6] = ATCC22019, pH 7, read-out: MIC C. parapsilosis
[7] = ATCC90030, pH 7, read-out: MIC C. glabrata
[8] = SC5314, pH 7, read-out: MIC C. albicans
[9] = Table 1, ATP hydrolysis at pH 7, read-out: IC50 Na^+,K^+-ATPase
[10] = ATCC13073, read-out: MIC for growth inhibition, A. fumigatus
[11] = CT016, read-out: MIC for growth inhibition, C. tropicalis
[12] = ATCC22019, read-out: MIC for growth inhibition, C. parapsilosis
[13] = ATCC90030, read-out: MIC for growth inhibition, C. glabrata
[14] = SC5314, read-out: Growth inhibition MIC, C. albicans in RPMI
[15] = SC5314, read-out: MIC for growth inhibition, C. albicans
[16] = Table 2, pH 7, n = 2, porcine kidney, read-out: IC50 for ATP hydrolysis, Na^+,K^+-ATPase
[17] = Table 1, ATP hydrolysis at pH 7.4 (compounds marked b), read-out: IC50 Na^+,K^+-ATPase

Ca^2+-ATPase (SERCA1a), sequence (P04191 1-994 isoform P04191-2): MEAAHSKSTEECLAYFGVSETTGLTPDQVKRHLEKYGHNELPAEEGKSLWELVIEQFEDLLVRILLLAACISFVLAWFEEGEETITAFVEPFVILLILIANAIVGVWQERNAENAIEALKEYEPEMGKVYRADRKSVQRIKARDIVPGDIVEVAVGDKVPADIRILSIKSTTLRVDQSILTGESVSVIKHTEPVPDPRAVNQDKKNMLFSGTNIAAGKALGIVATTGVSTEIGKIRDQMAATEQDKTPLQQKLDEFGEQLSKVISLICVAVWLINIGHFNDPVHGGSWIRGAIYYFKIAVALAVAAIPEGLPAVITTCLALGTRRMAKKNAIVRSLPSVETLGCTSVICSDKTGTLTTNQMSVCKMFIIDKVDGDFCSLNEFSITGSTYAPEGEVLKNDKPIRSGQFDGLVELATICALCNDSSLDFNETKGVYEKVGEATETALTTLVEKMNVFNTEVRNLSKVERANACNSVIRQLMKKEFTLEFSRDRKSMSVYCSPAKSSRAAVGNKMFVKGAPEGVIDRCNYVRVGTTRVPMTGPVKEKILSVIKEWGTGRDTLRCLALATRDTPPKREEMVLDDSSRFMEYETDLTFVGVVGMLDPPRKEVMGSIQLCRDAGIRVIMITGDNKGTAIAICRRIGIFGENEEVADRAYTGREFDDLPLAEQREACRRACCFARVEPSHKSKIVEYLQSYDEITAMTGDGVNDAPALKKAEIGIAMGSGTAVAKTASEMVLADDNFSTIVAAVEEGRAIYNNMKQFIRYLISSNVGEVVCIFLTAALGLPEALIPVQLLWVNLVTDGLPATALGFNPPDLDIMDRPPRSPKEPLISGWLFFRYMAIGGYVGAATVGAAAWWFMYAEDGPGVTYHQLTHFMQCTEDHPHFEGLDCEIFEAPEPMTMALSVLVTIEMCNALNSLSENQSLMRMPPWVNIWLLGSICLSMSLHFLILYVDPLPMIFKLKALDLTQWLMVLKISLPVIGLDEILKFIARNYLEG

In the case of `COc1ccc(-c2cc(C(=O)Nc3ccc4c(c3)OCCO4)c3ccccc3n2)c(OC)c1` [Compound 8], the IC50 (Ca^2+-ATPase (SERCA1a)) is reported as > 105 µM, the MIC [1, 4] is reported as > 38 µM and the MIC (Candida tropicalis Ct016; [5]) is reported as > 38 µM. For the same compound, the MIC [2, 6] was > 38 µM, the MIC [3, 7] was > 38 µM and the MIC (Candida albicans SC5314; [8]) was > 38 µM. The IC50 (Na^+,K^+-ATPase; [9]) was > 105 µM.
`COc1cccc(Nc2nc(Cl)nc(Nc3cccc(OC)c3)n2)c1` [Compound 9] was tested, and the IC50 (Ca^2+-ATPase (SERCA1a)) was > 105 µM, the MIC [1, 4] was > 150 µM and the MIC (Candida tropicalis Ct016; [5]) was > 150 µM. For the same compound, the MIC [2, 6] was > 150 µM, the MIC [3, 7] was > 150 µM and the MIC (Candida albicans SC5314; [8]) was > 150 µM. The IC50 (Na^+,K^+-ATPase; [9]) was > 105 µM.
Compound `CCN(CC)CCCNc1nc(SC)nc2c1sc1nc(-c3ccccc3)c3c(c12)CCC3` [Compound 19] has an IC50 (Ca^2+-ATPase (SERCA1a); Table 2, pH 7, n = 2, rabbit SERCA1a, read-out: IC50 for ATP hydrolysis, SERCA) of 4.4 ± 0.3 µM, an MIC [1, 10] of 12 µM (≈ 5.73 µg/mL) and an MIC (Candida tropicalis Ct016; [11]) of 3.7 µM (≈ 1.77 µg/mL). It also gave an MIC [2, 12] of 3.7 µM (≈ 1.77 µg/mL), an MIC [3, 13] of 3.7 µM (≈ 1.77 µg/mL) and an MIC (Candida albicans SC5314; [14]) of 7 µM (≈ 3.34 µg/mL). For the same compound, the MIC (Candida albicans SC5314; [15]) was 6 µM (≈ 2.87 µg/mL) and the IC50 (Na^+,K^+-ATPase; [16]) was 5.5 ± 1.8 µM.
For `CCc1nc2sc3c(NCCCN(C)C)ncnc3c2c2c1CCCC2` [Compound 17], the IC50 (Ca^2+-ATPase (SERCA1a)) was > 333 µM, the MIC [1, 10] was > 150 µM and the MIC (Candida tropicalis Ct016; [11]) was 150 µM (≈ 55.4 µg/mL). For the same compound, the MIC [2, 12] was 150 µM (≈ 55.4 µg/mL), the MIC [3, 13] was 150 µM (≈ 55.4 µg/mL) and the MIC (Candida albicans SC5314; [14]) was 150 µM (≈ 55.4 µg/mL). For the same compound, the MIC (Candida albicans SC5314; [15]) was 150 µM (≈ 55.4 µg/mL) and the IC50 (Na^+,K^+-ATPase; [16]) was > 333 µM.
For `CCOc1ccc2nc3cc(NC(=O)c4cccc(Br)c4)ccc3c(N)c2c1` [Compound 5], the IC50 (Ca^2+-ATPase (SERCA1a)) was 0.46 ± 0.04 µM, the MIC [1, 4] was > 75 µM and the MIC (Candida tropicalis Ct016; [5]) was 7.5 µM (≈ 3.27 µg/mL). It also gave an MIC [2, 6] of 7.5 µM (≈ 3.27 µg/mL), an MIC [3, 7] of 5.8 µM (≈ 2.53 µg/mL) and an MIC (Candida albicans SC5314; [8]) of 6.5 µM (≈ 2.84 µg/mL). The IC50 (Na^+,K^+-ATPase; [17]) was 1.3 ± 0.3 µM.
With `Oc1cccc(Nc2nc(-c3ccc(Cl)c(Cl)c3)cs2)c1` [Compound 7] the MIC [1, 4] was > 150 µM, the MIC (Candida tropicalis Ct016; [5]) was 26 µM (≈ 8.77 µg/mL) and the MIC [2, 6] was 8.2 µM (≈ 2.77 µg/mL). It also gave an MIC [3, 7] of 4.7 µM (≈ 1.58 µg/mL), an MIC (Candida albicans SC5314; [8]) of 7.3 µM (≈ 2.46 µg/mL) and an IC50 (Na^+,K^+-ATPase; [17]) of 5.8 ± 0.8 µM.
In the case of `COc1ccc(-c2cc(C(=O)Nc3ccc(C(C)C)cc3)c3ccccc3n2)c(OC)c1` [Compound 3], the IC50 (Ca^2+-ATPase (SERCA1a)) is reported as > 105 µM, the MIC [1, 4] is reported as > 150 µM and the MIC (Candida tropicalis Ct016; [5]) is reported as > 150 µM. For the same compound, the MIC [2, 6] was > 150 µM, the MIC [3, 7] was > 150 µM and the MIC (Candida albicans SC5314; [8]) was > 150 µM. For the same compound, the IC50 (Na^+,K^+-ATPase; [9]) was > 105 µM.
For `CC1CCCCN1CC(O)Cn1c(-c2ccccc2)c(-c2ccccc2)c2ccc3ccccc3c21` (centres unmarked) [Compound 4], the IC50 (Ca^2+-ATPase (SERCA1a)) was 4.1 ± 0.2 µM, the MIC [1, 4] was > 38 µM and the MIC (Candida tropicalis Ct016; [5]) was 12 µM (≈ 5.7 µg/mL). The MIC [2, 6] was > 38 µM, the MIC [3, 7] was > 38 µM and the MIC (Candida albicans SC5314; [8]) was 13 µM (≈ 6.17 µg/mL). For the same compound, the IC50 (Na^+,K^+-ATPase; [17]) was 15 ± 7.2 µM.
`CN(C)CCCNc1ncnc2c1sc1nc(N3CCCCC3)c3c(c12)CCCC3` [Compound 16] showed an IC50 (Ca^2+-ATPase (SERCA1a)) of 11.1 µM, an MIC [1, 10] of 15 µM (≈ 6.37 µg/mL) and an MIC (Candida tropicalis Ct016; [11]) of 28 µM (≈ 11.9 µg/mL). The MIC [2, 12] was 15 µM (≈ 6.37 µg/mL), the MIC [3, 13] was 11 µM (≈ 4.67 µg/mL) and the MIC (Candida albicans SC5314; [14]) was 15 µM (≈ 6.37 µg/mL). The MIC (Candida albicans SC5314; [15]) was 15 µM (≈ 6.37 µg/mL) and the IC50 (Na^+,K^+-ATPase; [16]) was 9.1 ± 1 µM.
